# Reference: patent US20250375526A1, “IRAK DEGRADERS AND USES THEREOF” (Kymera Therapeutics, Inc., priority 2020, published 2025)
# Columns and labels:
# IRAK4 = molecular target: T1, IRAK4 (Homo sapiens, UniProt Q9NWZ3); assay: OCI-LY10 IRAK MSD assay DC50 (IRAK4 degradation); format: cell-based; conditions: OCI-Ly10 cells, incubated for 4 hr, concentration of compound required to degrade 50% of protein
# T1 construct: endogenous in cells; host or cells: OCI-Ly10
# T1 sequence (Q9NWZ3 1-460): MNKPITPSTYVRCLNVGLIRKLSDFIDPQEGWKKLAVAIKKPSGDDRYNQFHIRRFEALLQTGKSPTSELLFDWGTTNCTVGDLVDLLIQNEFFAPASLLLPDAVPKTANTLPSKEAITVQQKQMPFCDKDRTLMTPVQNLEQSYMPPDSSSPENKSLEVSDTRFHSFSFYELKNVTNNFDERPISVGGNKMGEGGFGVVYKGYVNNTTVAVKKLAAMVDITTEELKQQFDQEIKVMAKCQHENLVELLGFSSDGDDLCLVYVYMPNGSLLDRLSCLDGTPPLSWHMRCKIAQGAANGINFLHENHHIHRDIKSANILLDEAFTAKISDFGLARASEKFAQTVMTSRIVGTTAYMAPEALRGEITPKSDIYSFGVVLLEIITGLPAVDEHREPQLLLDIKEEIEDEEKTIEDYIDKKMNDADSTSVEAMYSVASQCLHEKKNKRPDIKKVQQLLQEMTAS
# Protocol: A MSD assay is run to determine the concentration of compound required to degrade 50% of protein (DC50).
# • Compounds were reconstituted to 10 mM in stock solutions. The stock solutions were diluted to 5 mM and 45 μL of each dilution was transferred to a 384 pp-plate. A 3 fold, 8-point serial dilution was performed by transferring 15 μL of compound into 30 μL DMSO using Janus. • 20 nL of each compound were added into each well of a 96-well plate (Corning3799). • OCI-Ly10 cells were seeded into the 96-well plate at 3.0*10e^5 cells/100 μL/well. • The cell plate was shaken at 720 rpm for 5 min and incubated for 4 hr. • 100 μL of cells were transferred into the 96-PCR plate and spun down at high speed for 5 mins. • The supernatant was discarded and 100 μL of RIPA lysis buffer with proteinase inhibitors was added per well. The plate was then sealed and shaken at 600 rpm and 4° C. for about 20 min. • The plate was then spun down at high speed (about 3200 g) for 30 min and then frozen in a −80° C. fridge. • A bare MSD plate (L15XA-3) was coated with 2 μg/mL of capture antibody (mouse Anti-IRAK4 antibody [2H9], ab119942) in PBS to 40 μL/well and incubated overnight at 4° C.
# • The MSD coated plate was washed 3× (150 μL/well) with 1×TBST (CST #9997S). • The MSD plate was then blocked with 150 μL of blocking buffer [3% Blocker A (MSD, R93BA-4) in TBST]/well and shaken for 1 hr at RT and 600 rpm. • The MSD plate was washed 3× (150 μL/well) with 1×TBST. The sample RIPA lysates were then added to the MSD plate (50 μL/well) and shaken for 1 hr at RT and 600 rpm. • The MSD plate was washed 3× (150 μL/well) with 1×TBST and the primary detection antibody (Rabbit Anti-IRAK4 antibody [Y279], ab32511) was added to a final concentration of 1 μg/ml with 25 μL/well. The plate was then shaken for 1 hr at RT and 600 rpm. • The MSD plate was washed 3× (150 μL/well) with 1×TBST and the secondary detection antibody, SULFO-TAG anti-species antibody (Anti Rabbit Antibody (R32AB-5) MSD, R32AB-1) was added to a volume of 25 μL/well at a final concentration of 1 μg/ml. The plate was then shaken for 1 hr at RT and 600 rpm. • The MSD plate was then washed 3× (150 μL/well) with 1×TBST. • 1×MSD reading buffer was then added (150 μL/well) and the plate […].
# (MSD, R92TC-2) • The MSD instrument was then read.
# The remaining activity was calculated following the formula below:
# • The DC50 was calculated by fitting the Curve using Xlfit (v5.3.1.3), equation 201: […]
# The letter codes for IRAK4 DC50 indicate the concentration of compound required to degrade 50% of protein: A (<0.01 μM), B (0.01-0.1 μM), C (>0.1-0.2 μM), D (>0.2 μM).
# OCI-LY10 cells = assay: CellTiter-Glo Luminescent Cell Viability Assay; format: cell-based; conditions: Homo sapiens, 96 h, incubated 4 days, read-out: OCI-LY10 CTG IC50
# Protocol: Compound-mediated viability effect on OCI-LY10 was quantitatively determined using the CellTiter-Glo® Luminescent Cell Viability Assay kit from Promega (Catalog number G7570) following manufacturer's recommended procedures. Briefly, OCI-LY10 cells were seeded into 384 well plates (Grenier Bio-One, Catalog number 781080) with a density of 10,000 cells per well. Compounds were then added to the assay plate with final top concentration of 10 μM and 1:3 dilution series with total of 9 doses. The final DMSO concentration was normalized to 0.2%. The assay plates were incubated at 37° C. for 4 days under 5% CO2. Then the assay plate was equilibrated at room temperature for 10 minutes. To determine cell viability, 30 μL CellTiter Glo reagent was added to each well and the assay plate was centrifuged at 1000 rpm for 30 second, incubated at room temperature for 10 min, and analyzed by detecting the luminescence using a multimode plate reader (EnVision 2105, PerkinElmer). The data was then analyzed by software Prism 7.0 from GraphPad and the dose response curves were fit using a three-parameter logistic equation to calculate IC50.
# The letter codes for OCI-LY10 CTG IC50 include: A (<1 μM), B (1-10 μM), C (>10 μM).
Compound,DC50 (IRAK4) [µM],IC50 (OCI-LY10 cells) [µM]
CC(C)(O)c1cc2nn([C@H]3CC[C@H](CN4CCC(c5cccn6c(N7CCC(=O)NC7=O)cnc56)CC4)CC3)cc2cc1NC(=O)c1cccc(C(F)(F)F)n1 [I-23],< 0.01,1 to 10
COc1cc2nn([C@H]3CC[C@H](CN(C)C4CCN(c5ccn6c(N7CCC(=O)NC7=O)cnc6c5)CC4)CC3)cc2cc1NC(=O)c1cccc(C(F)(F)F)n1 [I-31],< 0.01,< 1
CC(C)(O)c1cc2nn([C@H]3CC[C@H](CC4CCN(c5ccn6c(N7CCC(=O)NC7=O)cnc6c5)CC4)CC3)cc2cc1NC(=O)c1cccc(C(F)(F)F)n1 [I-2],< 0.01,1 to 10
CC(C)(O)c1cc2nn([C@H]3CC[C@H](CNCCOCCOCC#Cc4ccn5c(N6CCC(=O)NC6=O)cnc5c4)CC3)cc2cc1NC(=O)c1cccc(C(F)(F)F)n1 [I-34],0.01 to 0.1,> 10
O=C1CCN(c2cncc3cc(C#CCOC4CCN(C[C@H]5CC[C@H](n6cc(NC(=O)c7cnn8ccc(N9C[C@H]%10C[C@@H]9CO%10)nc78)c(C(F)F)n6)CC5)CC4)ccc23)C(=O)N1 [I-16],> 0.2,1 to 10
O=C1CCN(c2cncc3c(C#CCOC4CCN(C[C@H]5CC[C@H](n6cc(NC(=O)c7cnn8ccc(N9C[C@H]%10C[C@@H]9CO%10)nc78)c(C(F)F)n6)CC5)CC4)cccc23)C(=O)N1 [I-9],< 0.01,1 to 10
COc1cc2nn([C@H]3CC[C@H](CN(C)C4CCN(c5cccn6c(N7CCC(=O)NC7=O)cnc56)CC4)CC3)cc2cc1NC(=O)c1cccc(C(F)(F)F)n1 [I-25],< 0.01,< 1
CN(C[C@H]1CC[C@H](n2cc3cc(NC(=O)c4cccc(C(F)(F)F)n4)c(C(C)(C)O)cc3n2)CC1)C1CCN(c2ccn3c(N4CCC(=O)NC4=O)cnc3c2)CC1 [I-1],< 0.01,1 to 10
CN(C[C@H]1CC[C@H](n2cc3cc(NC(=O)c4cccc(C(F)(F)F)n4)c(C(C)(C)O)cc3n2)CC1)C1CCN(c2cccn3c(N4CCC(=O)NC4=O)cnc23)CC1 [I-4],< 0.01,1 to 10
O=C1CCN(c2cnc3c(C#CCOC4CCN(C[C@H]5CC[C@H](n6cc(NC(=O)c7cnn8ccc(N9C[C@H]%10C[C@@H]9CO%10)nc78)c(C(F)F)n6)CC5)CC4)cccn23)C(=O)N1 [I-24],< 0.01,1 to 10
